Reference: the supplement of paper PMC10307832

What was measured:
Test in all cases: relative viability (nuclei count vs DMSO), 5 days (fraction); higher = more cells survive
[1] = compound: C1CSC2=C(C(=O)N1)SC3=C2C=C(C=C3)O [kb NB 142-70] + C[C@@H](Oc1cc(-c2cnn(C3CCNCC3)c2)cnc1N)c1c(Cl)ccc(F)c1Cl [Crizotinib] (partner 1 µM)
How it was run: (§1)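 Lung cancer cell lines in 1536-well plates were dosed by pin tool the day after seeding, either with one drug alone or with a fixed anchor-drug dose plus five library-drug doses (not always all listed) in √10 steps. After 5 days, cells were fixed and their nuclei stained in one step (final 0.05% Triton X-100, 1% formaldehyde, 1 ug/ml Hoechst), then counted on 4× images. Relative viability is the nuclei count in treated wells divided by that in vehicle wells. Values are medians of duplicate plates.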

[2] = compound: NCC(=O)Nc1ccc(-n2nc(C(F)(F)F)cc2-c2ccc3c(ccc4ccccc43)c2)cc1 + CC(C)C[C@H](NC(=O)[C@H](Cc1ccccc1)NC(=O)c1cnccn1)B(O)O [Bortezomib] (partner 0.002 µM)
How it was run: as §1

[3] = compound: C1CSC2=C(C(=O)N1)SC3=C2C=C(C=C3)O [kb NB 142-70] + CC(=O)c1c(C)c2cnc(Nc3ccc(N4CCNCC4)cn3)nc2n(C2CCCC2)c1=O [Palbociclib] (partner 0.5 µM)
How it was run: as §1

[4] = compound: NCC(=O)Nc1ccc(-n2nc(C(F)(F)F)cc2-c2ccc3c(ccc4ccccc43)c2)cc1 + O=C(CCCCCCC(=O)Nc1ccccc1)NO [Vorinostat] (partner 1 µM)
How it was run: as §1

Row | Cell Line | relative viability ([1]; first compound 0.1 µM) | relative viability ([1]; first compound 1 µM) | relative viability ([1]; first compound 3.162 µM) | relative viability ([2]; first compound 0.02 µM) | relative viability ([2]; first compound 0.06325 µM) | relative viability ([2]; first compound 0.2 µM) | relative viability ([2]; first compound 0.6325 µM) | relative viability ([2]; first compound 2 µM) | relative viability ([3]; first compound 0.1 µM) | relative viability ([3]; first compound 1 µM) | relative viability ([3]; first compound 3.162 µM) | relative viability ([4]; first compound 0.02 µM) | relative viability ([4]; first compound 0.06325 µM) | relative viability ([4]; first compound 0.2 µM) | relative viability ([4]; first compound 0.6325 µM) | relative viability ([4]; first compound 2 µM)
1 | 201T | 0.989 | 1.07 | 1.03 | 1.04 | 1.18 | 1.03 | 1.17 | 1.09 | 0.35 | 0.361 | 0.394 | 0.926 | 0.968 | 0.957 | 0.974 | 0.935
2 | A549 | 0.762 | 0.861 | 0.213 | – | – | – | – | – | – | – | – | – | – | – | – | –
3 | A-427 | 0.937 | 1.01 | 0.908 | 0.949 | 0.919 | 0.948 | 0.972 | 0.984 | 0.505 | 0.555 | 0.507 | 0.864 | 0.825 | 0.908 | 0.839 | 0.982
4 | ABC-1 | 1.02 | 1.31 | 0.497 | 0.306 | 0.321 | – | 0.226 | 0.267 | 0.425 | 0.83 | 0.534 | 0.917 | 1.15 | – | 1.08 | 1.39
5 | BEN | 0.791 | 0.906 | 0.69 | 0.817 | 0.852 | 0.763 | 0.701 | 0.576 | 0.443 | 0.459 | 0.488 | 0.579 | 0.526 | 0.56 | 0.593 | 0.586
6 | CAL-12T | 0.605 | 0.802 | 0.611 | 0.899 | 1.09 | 0.967 | 0.931 | 1.11 | 0.48 | 0.363 | 0.188 | 0.692 | 0.822 | 1.04 | 0.684 | 0.916
7 | COR-L23 | 0.679 | 0.818 | 0.278 | 1.05 | 0.944 | 0.962 | 0.978 | 0.737 | 0.324 | 0.317 | 0.186 | 0.466 | 0.46 | 0.576 | 0.449 | 0.372
8 | Calu-6 | 0.748 | 0.839 | 0.384 | 0.998 | 1.2 | 1.06 | 0.972 | 1.04 | – | – | – | – | – | – | – | –
9 | EBC-1 | 0.196 | 0.209 | 0.155 | 0.533 | 0.556 | 0.738 | 0.52 | 0.589 | – | – | – | – | – | – | – | –
10 | IA-LM | 0.856 | 1.25 | 0.894 | 0.775 | 0.721 | 0.802 | 0.814 | 0.813 | – | – | – | 0.989 | 1.08 | 0.981 | 0.908 | 0.896
11 | LK-2 | 0.225 | 0.226 | 0.204 | – | – | – | – | – | 0.661 | 0.476 | 0.352 | 0.445 | 0.279 | 0.244 | 0.288 | 0.256
12 | NCI-H358 | 0.481 | 0.493 | 0.136 | – | – | – | – | – | 0.127 | 0.136 | 0.0896 | 0.735 | 0.728 | 0.694 | 0.768 | 0.653
13 | NCI-H522 | – | – | – | – | – | – | – | – | 0.988 | 0.789 | 0.77 | 0.91 | 0.836 | 0.802 | 0.973 | 0.903
14 | NCI-H596 | 1.03 | 1.03 | 0.933 | 1.27 | 1.1 | 0.883 | 1.96 | 1.05 | – | – | – | 0.636 | 0.705 | 0.706 | 0.731 | 0.526
15 | NCI-H1299 | 0.928 | 0.969 | 0.893 | 0.992 | 1.03 | 1.1 | 0.972 | 1.04 | – | – | – | – | – | – | – | –
16 | NCI-H1395 | – | – | – | – | – | – | – | – | 0.582 | 0.685 | 0.631 | 0.761 | 0.82 | 0.686 | 0.646 | 0.924
17 | NCI-H1563 | 0.864 | 0.853 | 0.839 | 0.77 | 0.962 | 0.69 | 0.925 | 0.928 | – | – | – | – | – | – | – | –
18 | NCI-H1648 | – | – | – | – | – | – | – | – | 0.276 | 0.275 | 0.206 | 0.416 | 0.423 | 0.762 | 0.408 | 0.536
19 | NCI-H1703 | 0.681 | 0.866 | 0.489 | 0.278 | 0.237 | 0.307 | 0.215 | 0.344 | – | – | – | – | – | – | – | –
20 | NCI-H1792 | 0.995 | 1.01 | 0.914 | 1.02 | 0.974 | 0.932 | 0.946 | 0.966 | 0.586 | 0.722 | 0.836 | – | – | – | – | –
21 | NCI-H1793 | – | – | – | – | – | – | – | – | 0.301 | 0.329 | 0.357 | 0.758 | 0.874 | 0.699 | 0.793 | 0.86
22 | NCI-H1944 | 1.02 | 1.31 | 1.23 | – | – | – | – | – | 0.334 | 0.358 | 0.376 | 0.546 | 0.695 | 0.554 | 0.558 | 0.526
23 | NCI-H2170 | 1.21 | 1.22 | 1.04 | – | – | – | – | – | 0.413 | 0.44 | 0.392 | 0.9 | 0.926 | 0.849 | 0.826 | 0.823
24 | NCI-H2342 | – | – | – | – | – | – | – | – | 0.547 | 0.497 | 0.589 | 0.871 | 0.817 | 0.663 | 0.864 | 0.743
25 | SK-MES-1 | 1.01 | 1.02 | 0.72 | – | – | – | – | – | 0.343 | 0.424 | 0.402 | 1.06 | 1.07 | 1.17 | 1.02 | 1.23
26 | SW 900 | – | – | – | – | – | – | – | – | 0.553 | 0.463 | 0.458 | 0.492 | 0.464 | 0.44 | 0.546 | 0.53
